# Source: patent US20260199301A1, “PHENYL-PYRAZOLO[3,4-B]PYRIDINE-4-CARBOXYLIC ACID DERIVATES FOR USE AS 5-ALPHA REDUCTASE ANTAGONISTS IN METHODS OF TREATMENT” (UNIVERSITY OF CAPE TOWN, priority 2022, published 2026)
# Where two headings read alike, the source gives them in different places.
# Experiments:
# [1] = tested on: HEK293 cell line; test: MTT assay IC50 in HEK293 cell line; format: cell-based, human
# Procedure: (§1) The DU-145 cell lines and HEK293 cell lines were grown to 70% confluence in DMEM supplemented with 10% (v/v) fetal bovine serum and 1% antibiotic (100 μg/mL of streptomycin and 100 unit/mL of penicillin (P/S) at 37° C. in a 5% CO2 environment.
# (§2) The half maximal inhibitory concentration (IC50) was established in the selected cell lines. The cell lines previously identified as having high endogenous expression levels of SRD5A2 were used to determine the in-vitro cytotoxic effects of Bsy1 on DU-145 and HEK293. The results were compared with the comparative compounds finasteride and dutasteride. The cytotoxic concentration and cell viability of these drugs were evaluated using the 3-(4,5-dimethylthiazol-2-yl)-2,5-diphenyl-2H-tetrazolium bromide (“MTT”) assay, using the comparative compounds as positive controls.
# (§3) The study seeded cells at 1×10^4 cells/well density using a 96-well plate and incubated them for 24 hours to allow the cells to attach in a 5% CO2 incubator at 37° C. Different serial concentrations of the compounds treated the cells, 1% (v/v) DMSO/methanol in DMEM treated the control cells, and DMEM only served as a blank. Cells were stained with 100 μl of a 0.5 mg/ml MTT solution and incubated in a 5% CO2 atmosphere at 37° C. incubators for 4 hours. The medium was aspirated, and 100 μl of absolute ethanol was added to each well. The formation of […] measured all growth and chemosensitivity. Absorbance was detected spectrophotometrically at 570 nm using a reference wavelength of 630 nm. The experiments were performed in triplicate.
# (§4) The dose-response from the non-linear curve (inhibitor vs normalised response—variable slope curve), plotted using GraphPad Prism V 9.3.1, was used to determine the IC50 values of these cells.
# However, the IC50 values for Bsy1 in the HEK293 cell lines were higher than in the DU-145 cells.
# [2] = Solubility, miniaturised shake-flask method; format: physicochemical; conditions: aqueous buffer, thermodynamic from solid, pH 7.4 as headed, phosphate buffer, 25° C.
# Procedure: […] Briefly, 4 μl of a 10 mM stock in DMSO was added to a 96-well plate and evaporated using a GeneVac system. […] At the end of this incubation, the samples were centrifuged at 3500 g for 15 min then transferred to an analysis plate. A calibration curve in DMSO for each sample between 10-220 μM was prepared and included in the analysis plate. Analysis was then performed by LC-MS (Agilent Rapid Resolution HPLC, AB SCIEX 4500 MS) and solubility of each sample determined from the corresponding calibration curve.
# [3] = Plasma protein binding by ultracentrifugation; format: in vitro ADME; conditions: mouse, read-out: Mouse PPB (converted)
# [4] = Mouse hepatocyte stability
# Procedure: (§7) Hepatocyte stability was performed using a 5-point assay design using cryopreserved hepatocytes in suspension. Briefly, the compounds (1 μM) were incubated at 37° C. in human (Hepatosure 100-donor pool, XenoTech LLC) and mouse (Cryostax mouse CD1, XenoTech LLC) hepatocytes (500,000 cells/ml) for various timepoints over 120 min. Reactions were quenched by adding ice-cold acetonitrile containing internal standard. The samples were then centrifuged, and the samples analysed by LC-MS/MS (Agilent Rapid Resolution HPLC, AB SCIEX 4500 MS) for the disappearance of parent compound. Half-life, clearance and hepatic excretion ratios were determined using standard equations.
# (§8) The CLint,app value can be used to calculate a predicted in vivo value by factoring in scaling factors (number of hepatocytes per gram of liver and grams of liver per kg body weight) and binding (measured plasma protein binding and estimated incubational binding). The predicted mouse and human clearance values represent the total hepatic clearances that would be expected for these compounds in vivo.
# [5] = tested on: HEK293 and DU-145 cell lines; test: Selectivity index from ratio of IC50 values, normal cells vs cancer cells; format: cell-based, human; conditions: normal cells (HEK293) vs cancer cells (DU-145)
# Procedure: The selectivity index, indicating the selectivity of a given compound between normal cells and cancer cells, was calculated from the ratio of their respective IC50 values (Equation 1).
# [6] = tested on: SRD5A2 gene; test: qPCR relative expression of SRD5A2 gene in HEK293 cell line; format: cell-based, human; conditions: for relative expression of the SRD5A2 gene increased: HEK293, 24 hours at IC50 (finasteride 1.34 nM, dutasteride 1.29 μM, Bsy1 0.02 nM)
# Procedure: as §1
# Experiments were repeated three times.]
# The two-way ANOVA compared the expression levels of the SRD5A genes and between the different drugs in HEK293 cell lines (FIG. 6 B). […] Data were expressed for each bar as means±standard error of mean ****P≤0.0001 from control.
# [7] = Human hepatocyte stability
# Procedure: as §7, §8
# [8] = tested on: SRD5A1 gene; test: qPCR relative expression of SRD5A1 gene in DU-145 cell line; format: cell-based, human; conditions: DU-145, 24 hours at IC50 values
# Procedure: as §1
# (§5) The androgen-independent DU-145 cell line, treated with finasteride (0.9 nM), dutasteride (1.6 μM), and Bsy1 (0.0054 nM) for 24 hours, was measured for their SRD5A gene regulation using qPCR. […] The relative expression of the SRD5A2 gene was reduced by approximately 3-fold for finasteride and dutasteride and 2-fold for Bsy1 (FIG. 5A). However, it should be noted that the finasteride concentrations were 100-fold, and dutasteride 1000-fold, higher than the concentration of Bsy1. […] The level of inhibitory action against SRD5A1 and SRD5A2 is surprising as it is expected that that the phenyl-pyrazolo[3,4-b]pyridine-4-carboxylic acid Bsy1 and its derivates, as described herein, will show similar inhibition results. […] Experiments were repeated three times.]
# (§6) A two-way ANOVA statistical analysis was conducted to compare the gene suppression levels of each drug treatment against the control (untreated), using Dunnett's correction test (DCT) (FIG. 5B). [FIG. 5B—two-way ANOVA Dunnett test of the Control vs Treatment at IC50 values. Comparison tests of control vs. drug treatment at p<0.05 for: SRD5A1 (ns); SRD5A2**; SRD5A3 (ns). […]
# [9] = tested on: DU-145 cell line; test: MTT assay IC50 in DU-145 cell line; format: cell-based, human; conditions: called antagonist activity against SRD5A2
# Procedure: as §1, §2, §3, §4
# The study determined the ICs values using a non-linear curve fit with a hyperbola model (FIG. 3).
# [10] = tested on: SRD5A2 gene; test: qPCR relative expression of SRD5A2 gene in DU-145 cell line; format: cell-based, human; conditions: DU-145, 24 hours at IC50 (finasteride 0.9 nM, dutasteride 1.6 μM, Bsy1 0.0054 nM)
# Procedure: as §1, §5, §6
# [11] = target: T1, SRD5A2 (Homo sapiens, UniProt P31213); conditions: cited from earlier work
# T1 sequence (P31213 1-254): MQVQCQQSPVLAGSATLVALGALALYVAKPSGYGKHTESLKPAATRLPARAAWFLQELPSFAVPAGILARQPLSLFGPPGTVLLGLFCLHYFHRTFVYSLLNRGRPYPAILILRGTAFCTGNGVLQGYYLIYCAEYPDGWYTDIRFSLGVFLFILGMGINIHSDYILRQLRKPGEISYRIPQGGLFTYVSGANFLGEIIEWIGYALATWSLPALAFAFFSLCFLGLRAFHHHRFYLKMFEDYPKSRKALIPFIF
# [12] = in vitro; conditions: human, hepatocytes
# Procedure: as §7, §8
# [13] = 1 μM
# Procedure: as §7, §8
# [14] = CD1, mouse, 1 μM
# Procedure: as §7, §8
# [15] = in vitro; conditions: CD1, mouse, hepatocytes
# Procedure: as §7, §8
# [16] = Homo sapiens, HEK293, HEK293 cell line, called antagonist activity against SRD5A2, read-out: IC50
# [17] = Homo sapiens, DU-145, DU-145 cell line
structure (smiles),measurement,setting,value
"O=C1C=C(C(=O)O)C2C(C3CC3)=NN(c3ccc(F)cc3)C2N1 (centres unmarked) [Bsy1, 3-cyclopropyl-1-(4-fluorophenyl)-6-oxo-3a,6,7,7a-tetrahydro-1H-pyrazolo[3,4-b]pyridine-4-carboxylic acid]",IC50,[1]; [16],0.02 nM
same,solubility at 24 h,[2],> 200 µM
same,"fraction unbound at 4 h, 10 μM",[3],0.95
same,hepatocyte CLint at 1 μM,"[4]; CD1, mouse, cryopreserved hepatocytes in suspension",< 6.4 µL/min/1e6 cells
same,hepatic clearance classification,"[4]; mouse, predicted clearance below 30% of liver blood flow 126 ml/min/kg",low hepatic clearance
same,Predicted mouse Clearance,"[4]; scaled from mouse hepatocyte CLint,app",<13.8 mL/min/kg
same,SELECTIVITY INDEX,[5],3.7
same,relative expression of the SRD5A2 gene increased,[6],approximately 2 fold
same,hepatocyte CLint at 1 μM,"[7]; human, cryopreserved hepatocytes in suspension",4.1 µL/min/1e6 cells
same,hepatic clearance classification,"[7]; human, predicted clearance below 30% of liver blood flow 20.7 ml/min/kg",low hepatic clearance
same,Predicted human Clearance,"[7]; scaled from human hepatocyte CLint,app",6.7 mL/min/kg
same,SRD5A1 suppression,[8],comparable
same,IC50,[9]; DU-145 cell line,5400 nM
"O=C1C=C(C(=O)O)C2C(C3CC3)=NN(c3ccc(Br)cc3)C2N1 (centres unmarked) [Bsy2, 1-(4-bromophenyl)-3-cyclopropyl-6-oxo-3a,6,7,7a-tetrahydro-1H-pyrazolo[3,4-b]pyridine-4-carboxylic acid]",solubility at 24 h,[2],195 µM
"O=C1C=C(C(=O)O)C2C(C3CC3)=NN(c3ccc(Cl)cc3)C2N1 (centres unmarked) [Bsy3, 1-(4-chlorophenyl)-3-cyclopropyl-6-oxo-3a,6,7,7a-tetrahydro-1H-pyrazolo[3,4-b]pyridine-4-carboxylic acid]",solubility at 24 h,[2],190 µM
"O=C1C=C(C(=O)O)C2C(C3CC3)=NN(c3ccccc3F)C2N1 (centres unmarked) [Bsy4, 3-cyclopropyl-1-(2-fluorophenyl)-6-oxo-3a,6,7,7a-tetrahydro-1H-pyrazolo[3,4-b]pyridine-4-carboxylic acid]",solubility at 24 h,[2],> 200 µM
"O=C1C=C(C(=O)O)C2C(C3CC3)=NN(c3cccc(F)c3)C2N1 (centres unmarked) [Bsy5, 3-cyclopropyl-1-(3-fluorophenyl)-6-oxo-3a,6,7,7a-tetrahydro-1H-pyrazolo[3,4-b]pyridine-4-carboxylic acid]",solubility at 24 h,[2],> 200 µM
"COc1ccc(N2N=C(C3CC3)C3C(C(=O)O)=CC(=O)NC32)cc1 (centres unmarked) [Bsy6, 3-cyclopropyl-1-(4-methoxyphenyl)-6-oxo-3a,6,7,7a-tetrahydro-1H-pyrazolo[3,4-b]pyridine-4-carboxylic acid]",solubility at 24 h,[2],120 µM
C[C@]12C=CC(=O)N[C@@H]1CC[C@@H]1[C@@H]2CC[C@]2(C)[C@@H](C(=O)Nc3cc(C(F)(F)F)ccc3C(F)(F)F)CC[C@@H]12 [Dutasteride],relative expression of the SRD5A2 gene reduced,[10],approximately 3 fold
same,IC50,"[1]; HEK293 cell line, called antagonist activity against SRD5A2",1210 ± 1370 nM
same,IC50,"[1]; Homo sapiens, HEK293, HEK293 cell line, called antagonist activity against SRD5A2",1290 nM
same,SELECTIVITY INDEX,[5],0.81
same,relative expression of the SRD5A2 gene increased,[6],approximately 2 fold
same,IC50,[9]; DU-145 cell line,1670 ± 1850 nM
same,IC50,[9]; [17],1600 nM
CC(C)(C)NC(=O)[C@H]1CC[C@H]2[C@@H]3CC[C@H]4NC(=O)C=C[C@]4(C)[C@H]3CC[C@]12C [Finasteride],selectivity for SRD5A2 than SRD5A1,[11],100 fold
same,relative expression of the SRD5A2 gene reduced,[10],approximately 3 fold
same,IC50,"[1]; HEK293 cell line, called antagonist activity against SRD5A2, read-out: IC50",1.24 ± 1.43 nM
same,IC50,[1]; [16],1.34 nM
same,solubility at 24 h,[2],> 200 µM
same,"fraction unbound at 4 h, 10 μM",[3],0.27
same,hepatocyte CLint at 1 μM,[12],4.5 µL/min/1e6 cells
same,Predicted human Clearance,[13],3.3 mL/min/kg
same,SELECTIVITY INDEX,[5],1.49
same,relative expression of the SRD5A2 gene increased,[6],~0.75 fold
same,"SRD5A2 expression, drug treatment vs untreated, two-way ANOVA Dunnett test","[6]; HEK293, IC50 values",ns
same,Predicted mouse Clearance,[14],10.6 mL/min/kg
same,hepatocyte CLint at 1 μM,[15],13.8 µL/min/1e6 cells
same,SRD5A1 suppression,[8],comparable
same,IC50,[9]; DU-145 cell line,0.72 ± 1.09 nM
same,IC50,[9]; [17],0.9 nM
